Reference: patent US20260034161A1, “2-HYDROXYPROPYL-BETA-CYCLODEXTRIN AS A CANCER THERAPY NEOADJUVANT OR ADJUVANT” (University of the Witwatersrand, Johannesburg, priority 2022, published 2026)
Entries after “also recorded” stand apart in the source; their conditions may differ.

Legend:
[1] = system: multidrug resistance protein 1 (MDR1); test: Vybrant MDR assay (calcein AM retention); format: cell-based; conditions: HT-29 cells treated with the FOLFOX chemotherapy cocktail; 1 mM MβCD, 10 mM HPβCD; preliminary data
Method: To assess the multi-drug resistant potential of cells pre- and post-EMT, the Vybrant® MDR Assay Kit (ThermoFisher Scientific, USA) was employed. This assay relies on the administration of an appropriate multidrug resistance protein 1 (MDR1) substrate, calcein acetoxymethyl ester (calcein AM) where drug-efflux potential is assessed by measuring the levels of intracellular calcein fluorescence. 10 000 cells were seeded per well in a 96-black walled plate. Following the 2-hour treatment period, cells were incubated with 0.25 μM Calcein-AM for 30 minutes at 37° C. Following this, two PBS washes were completed, and PBS administered to each well to ascertain fluorescence intensity. The Victor Nivo multi-mode microplate reader (Perkin Elmer, USA) was utilised with the excitation maximum set to 494 nm and the emission maximum set to 517 nm.
This can be attributed to alterations in lipid-raft membrane structure resulting in translocation of MDR1 to detergent soluble fractions which affects basal ATPase activity. This consequently affects the efflux potential of the MDR1 transporter. […] Fluorescence intensity (RFU) was quantified using the Victor Nivo multi-mode microplate reader (Perkin Elmer, USA) with the excitation maximum set to 494 nm and the emission maximum set to 517 nm.

NMuMg cells [2] = test: RT-qPCR of cholesterol-related genes in NMuMg cells; conditions: NMuMg post-EMT
Method: Relative expression is presented as log 2 fold changes between conditions.
To delineate the molecular mechanism governing cholesterol-mediated EMT induction, RT-qPCR analysis of the major cholesterol-related genes were assessed in the NMuMg cell line. RNA was extracted using the Direct-Zol™ RNA MiniPrep kit (Zymo Research, Inqaba Biotec™, SA). RNA extraction was carried out as per the manufacturer's protocol. Total RNA of 1 μg was utilised for cDNA synthesis using the RevertAidFirst Strand cDNA Synthesis kit (Thermo Fisher Scientific, USA) and was carried out according to the manufacturer's protocol. qPCR was performed using the SensiFAST™ SYBR® No-ROX kit, utilising a 3-step cycle on the CFX96 Touch™ Real-Time PCR detection system (Bio-Rad).

MCF-7 cells = test: Immunofluorescence of EMT markers E-cadherin and vimentin in MCF-7 cells; format: cell-based
Method: (§1) Three different mechanisms of action were used to induce EMT in breast and colorectal adenocarcinoma cell lines. Breast cancer MCF-7 cells were treated with 150 micromolar (μM) cobalt chloride (CoCl2) for 48 hours. Initially, a working stock solution of 2500 μM COCl2 was prepared by dilution in distilled water. The resulting solution was further diluted upon administration to cells cultured in cell culture media. Cell culture media composition: Dulbecco's Modified Eagle's Medium (DMEM) (Sigma Aldrich, UK) supplemented with 10% foetal bovine serum (FBS) (Celtic Molecular Diagnostics, SA) and 1% Penicillin-Streptomycin (Sigma Aldrich, UK). NMuMg cells (a normal mouse mammary cell line) were treated with 10 nanograms/millilitre of transforming growth factor beta 1 (TGF-β) for 48 hours. A stock solution of TGF-β was prepared by reconstituting 2 μg of recombinant TGF-β at 20 μg/mL in sterile 4 mM HCl containing 1 mg/mL of bovine serum albumin (BSA) diluted in water. NMuMG cells were cultured in Dulbecco's Modified Eagle Medium (DMEM) (ThermoFisher Scientific, USA), supplemented with 10% FBS, 1% Penicillin-Streptomycin, 1% GlutaMAX, and 10 μg/mL insulin. Colorectal cancer HT-29 cells were treated with 50 nanograms/millilitre of interleukin-6 (IL-6) for 24 hours. A working stock solution of 1 micrograms/millilitre of IL-6 was prepared by dilution in 0.1% BSA in phosphate-buffered saline (PBS). The resulting solution was further diluted upon administration to cells cultured in cell culture media. […]
(§2) Protein expression of EMT molecular markers in control and CoCl2, TGF-β and IL-6 treated cells was detected by employing immunofluorescence microscopy. […] E-cadherin expression was detected by Alexa Fluor 488 staining (green) while nuclei were stained with DAPI (blue) (FIG. 1). Vimentin expression was detected by Texas Red staining (red) while nuclei were stained with DAPI (blue) (FIG. 2). […]
(§3) Methyl-β-cyclodextrin (MβCD) was employed as a positive control, as it is a well-documented cholesterol depletory agent. […] Immunofluorescence intensity was quantified by utilising the ImageJ software (NIH, USA). Cells of interest and background fluorescence was analysed by considering the following parameters: area, integrated density and mean grey value. Corrected total cellular fluorescence was calculated as follows: CTCF=Integrated Density−(Area of selected cell×Mean fluorescence of background readings).
(§4) The protein expression of E-cadherin following treatment with various cholesterol targeting agents in MCF-7, NMuMg, and HT-29 cells, pre- and post-EMT induction was investigated. E-cadherin expression was determined by Alexa Fluor 488 staining (green) while nuclei were stained with DAPI (blue). […]

NMuMg cells [3] = test: Immunofluorescence of EMT markers E-cadherin and vimentin in NMuMg cells; format: cell-based, mouse
Method: as §1, §2, §3, §4

HT-29 cells [4] = test: Immunofluorescence of EMT markers E-cadherin and vimentin in HT-29 cells; format: cell-based
Method: as §1, §2, §3, §4

[5] = Toxicity of HPβCD compared to simvastatin
HT-29 cells [6] = test: HT-29 colorectal cancer xenograft in NOD/SCID mice: tumour size, weight, metastasis; format: in vivo; design: Tumour reduction / Tumour gain or reduction: concentration or dose not given beside the values; conditions: for Average tumour size / Average tumour weight: group average, 4 mice, 3 000 mg/kg HPβCD, 10 mg/kg OXAL, 30 mg/kg 5FU i.p.; for Tumour reduction: tumour size; for Tumour reduction / Tumour gain or reduction: as compared to the untreated group; for Tumour gain or reduction: tumour weight
Method: (§5) In order to investigate the in vivo application of HPβCD as an anti-cancer agent for colorectal cancer (CRC) using NOD/SCID mice, 24 NOD/SCID mice (5-8 weeks old) were injected with 4×10^6 HT-29 cells (suspended in 10% McCoy's media and 1×PBS), until tumours developed. Once tumours reached a size of 150-200 mm^3 (1-2 weeks), treatments (12 treatments in total for each group, however only up to 6 treatments for the OXAL treated group due to obvious toxicity) were given. Treatment groups consisted of 4 mice each and included a control group (injected with 1×PBS), a group treated with HPβCD, a group treated with Oxaliplatin (OXAL) only, a group treated with 5-Fluorouracil (5FU) only, a group treated with HPβCD and OXAL and lastly a group treated with HPβCD and 5FU. Mice were intraperitoneally injected with 3 000 mg/kg of HPβCD, 10 mg/kg of OXAL and 30 mg/kg of 5FU thrice a week for 4 weeks. For combination treatments HPβCD was administered with either 5FU or OXAL chemotherapy. Mice were weighed three times a week and averages were calculated to show per week weights. When mice were euthanized, serum was collected from whole blood samples and this was further used to test cholesterol levels, as well as Aspartate aminotransferase (AST) and Alanine aminotransferase (ALT) as a measure for liver toxicity. They were then perfused and all organs, including tumours, were harvested. All organs were snap frozen and stored at −80° C. Tumour samples were further stored in 10% neutral buffered formalin (4° C.) and RNA Later (−80° C.).

[7] = Tolerability of treatments in tumour-bearing NOD/SCID mice; format: in vivo
Method: as §5

[8] = Serum cholesterol levels post treatment; format: in vivo, NOD/SCID mice
Method: as §5

[9] = Serum AST and ALT as a measure of liver toxicity; conditions: mouse, in vivo
Method: as §5, with “When mice were euthanized, serum was collected from whole blood samples and this was further used to test cholesterol levels, as well as Aspartate aminotransferase (AST) and Alanine aminotransferase (ALT) as a measure for liver toxicity. They were then perfused and all organs, including tumours, were harvested. All organs were snap frozen and stored at −80° C. Tumour samples were further stored in 10% neutral buffered formalin (4° C.) and RNA Later (−80° C.).” left out
Blood was collected post euthanization and serum was analysed for AST and ALT levels using the IDEXX Catalyst DX Chemistry Analyzer. […]

[10] = MCF-7, post-EMT (CoCl2), 2-hour treatment, 10 mM HPβCD, 1 mM MβCD
[11] = post-EMT (TGF-β), 2-hour treatment, 10 mM HPβCD, 1 mM MβCD
[12] = HT-29, post-EMT (IL-6), 2-hour treatment, 10 mM HPβCD, 1 mM MβCD
[13] = MCF-7, 150 μM CoCl2 for 48 hours vs control
[14] = 10 ng/mL TGF-β for 48 hours vs control
[15] = HT-29, 50 ng/mL IL-6 for 24 hours vs control

With Methyl-β-cyclodextrin [MβCD] the “intracellular retention of fluorescent calcein” value [1] was “increase” and the “effect on cholesterol biosynthesis and influx (gene expression)” value (NMuMg cells [2]; 1 mM MβCD for 2 hours) was “more significant effect”.

With 2-hydroxypropyl-β-cyclodextrin [HPβCD] the “E-cadherin expression (immunofluorescence)” value (MCF-7 cells; [10]) was “increase”, the “vimentin expression (immunofluorescence)” value (MCF-7 cells; [10]) was “decrease” and the “E-cadherin expression (immunofluorescence)” value (NMuMg cells [3]; [11]) was “increase”. For the same compound, the “vimentin expression (immunofluorescence)” value (NMuMg cells [3]; [11]) was “decrease”, the “E-cadherin expression (immunofluorescence)” value (HT-29 cells [4]; [12]) was “increase” and the “vimentin expression (immunofluorescence)” value (HT-29 cells [4]; [12]) was “decrease”. For the same compound, the “intracellular retention of fluorescent calcein” value [1] was “increase”, the “toxicity compared to simvastatin” value [5] was “low toxicity” and the “average reduction in tumour size” value (HT-29 cells [6]; 3 000 mg/kg HPβCD i.p.) was about 17%. For the same compound, the “tumour size, visually” value (HT-29 cells [6]; FIG. 9) was “reduced”, the Average tumour size (HT-29 cells [6]) was 1983 mm^3 and the Average tumour weight (HT-29 cells [6]) was 3.5125 g. The Tumour reduction (HT-29 cells [6]) was -17.6%, the Tumour gain or reduction (HT-29 cells [6]) was 9.17% and the “effect of HPβCD on toxicity of the co-administered chemotherapy” value ([7]; 3 000 mg/kg HPβCD i.p. with OXAL or 5FU) was “decreased the toxicity of OXAL; also recorded: reduced toxicity of OXAL; also recorded: reduce toxicity related to 5FU”. The “average level of serum cholesterol” value ([8]; untreated average 51 mg/dL) was 65.5 mg/dL, the “AST:ALT ratio” value [9] was 1.67 U/L and the “liver toxicity (in words)” value [9] was “no observed liver toxicity”. For the same compound, the “effect on cholesterol efflux (gene expression)” value (NMuMg cells [2]; 10 mM HPβCD, 10 μM simvastatin for 2 hours) was “drastically affected”.

For [Cl][Co][Cl] [CoCl2, cobalt chloride], the “E-cadherin expression following EMT induction” value (MCF-7 cells; [13]) was “significantly decreased” and the “Vimentin expression following EMT induction” value (MCF-7 cells; [13]) was “significantly increased”.

With “transforming growth factor beta 1 [TGF-β]” the “E-cadherin expression following EMT induction” value (NMuMg cells [3]; [14]) was “significantly decreased” and the “Vimentin expression following EMT induction” value (NMuMg cells [3]; [14]) was “significantly increased”.

For O=C1[O][Pt]2([NH][C@@H]3CCCC[C@H]3[NH]2)[O]C1=O [OXAL, Oxaliplatin], the Average tumour size (HT-29 cells [6]) was 1413 mm^3, the Average tumour weight (HT-29 cells [6]) was 1.6975 g and the metastasis at dissection (HT-29 cells [6]; mouse, in vivo) was “metastasis almost throughout the body in one mouse”. The Tumour reduction (HT-29 cells [6]) was -41.3%, the Tumour gain or reduction (HT-29 cells [6]) was -47.2% and the “unexpected death of mice in treatment group” value ([7]; 6 treatments of OXAL alone, 10 mg/kg i.p.) was 50%. The “health outcome of treated mice” value ([7]; OXAL alone 6 treatments, OXAL with HPβCD all 12 treatments of the same dose) was 2 died and 2 had to be euthanized and the “serum cholesterol levels (in words)” value [8] was “significantly higher”.

In the case of interleukin-6 [IL-6], the “E-cadherin expression following EMT induction” value (HT-29 cells [4]; [15]) was “significantly decreased” and the “Vimentin expression following EMT induction” value (HT-29 cells [4]; [15]) was “significantly increased”.

Work on O=c1[nH]cc(F)c(=O)[nH]1 [5FU, 5-Fluorouracil] yielded an Average tumour size (HT-29 cells [6]) of 841.4 mm^3, an Average tumour weight (HT-29 cells [6]) of 1.4475 g and a Tumour reduction (HT-29 cells [6]) of -65.1%. The Tumour gain or reduction (HT-29 cells [6]) was -55% and the “serum cholesterol levels (in words)” value [8] was “significantly higher”.
